{
  "source": "patent US20090143440A1",
  "about": "“Pyrazoles Useful in the Treatment of Inflammation” (BIOLIPOX AB, priority 2005, published 2009)",
  "data": [
    {"target": "T1, purified human 15-lipoxygenase (Homo sapiens, UniProt P16050)", "T1 sequence (P16050 1-662)": "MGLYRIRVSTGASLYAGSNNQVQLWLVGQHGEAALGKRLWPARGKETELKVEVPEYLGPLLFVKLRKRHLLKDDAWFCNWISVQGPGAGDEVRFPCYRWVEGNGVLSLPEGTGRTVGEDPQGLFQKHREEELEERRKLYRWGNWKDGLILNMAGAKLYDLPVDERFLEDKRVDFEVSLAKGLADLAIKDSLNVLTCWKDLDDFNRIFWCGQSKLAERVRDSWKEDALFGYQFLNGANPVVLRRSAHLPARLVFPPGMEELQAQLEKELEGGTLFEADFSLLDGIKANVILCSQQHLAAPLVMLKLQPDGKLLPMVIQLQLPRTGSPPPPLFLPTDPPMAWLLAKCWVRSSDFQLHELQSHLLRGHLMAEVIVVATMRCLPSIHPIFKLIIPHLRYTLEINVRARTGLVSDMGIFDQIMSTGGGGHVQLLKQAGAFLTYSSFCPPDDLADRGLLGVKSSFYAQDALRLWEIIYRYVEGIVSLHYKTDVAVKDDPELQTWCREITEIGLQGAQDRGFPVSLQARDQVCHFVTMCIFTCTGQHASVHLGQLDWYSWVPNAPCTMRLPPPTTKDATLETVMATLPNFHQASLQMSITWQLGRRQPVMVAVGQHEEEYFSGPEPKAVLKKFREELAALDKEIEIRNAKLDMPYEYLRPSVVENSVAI", "test": "15-lipoxygenase inhibition assay (arachidonic acid oxidation, HPLC readout)", "type": "biochemical", "details": "arachidonic acid substrate, room temperature, PBS pH 7.4", "procedure": "The assay employed takes advantage of the ability of lipoxygenases to oxidize polyunsaturated fatty acids, containing a 1,4-cis-pentadiene configuration, to their corresponding hydroperoxy or hydroxyl derivatives. In this particular assay, the lipoxygenase was a purified human 15-lipoxygenase and the fatty acid was arachidonic acid. The assay is performed at room temperature (20-22° C.) and the following are added to each well in a 96-well microtiter plate:\na) 35 μL phosphate buffered saline (PBS) (pH 7.4); b) inhibitor (i.e. compound) or vehicle (0.5 μl DMSO); c) 10 μL of a 10× concentrated solution of 15-lipoxygenase in PBS. […] The plate is then incubated for 10 minutes at room temperature; e) the enzymatic reaction is terminated by the addition of 100 μl methanol; and f) the amount of 15-hydroperoxy-eicosatetraenoic acid or 15-hydroxy-eicosatetraenoic acid is measured by reverse phase HPLC.", "units": {"IC50": "µM"}, "values": [
      {"smiles": "O=C(Nc1ccc(C(F)(F)F)cn1)c1cc(Cl)[nH]n1", "note": "[Example 5, 5-Chloro-N-(5-(trifluoromethyl)pyridin-2-yl)pyrazole-3-carboxamide]", "IC50": 0.3},
      {"smiles": "Cc1nc(NC(=O)c2cc(Cl)[nH]n2)ccc1Br", "note": "[Example 6, N-(5-bromo-6-methylpyridin-2-yl)-5-chloropyrazole-3-carboxamide]", "IC50": 0.32},
      {"smiles": "O=C(Nc1ccc(F)cn1)c1n[nH]c(C(F)(F)F)c1Cl", "note": "[Example 11, 4-Chloro-N-(5-fluoropyridin-2-yl)-5-(trifluoromethyl)pyrazole-3-carboxamide]", "IC50": 0.31},
      {"smiles": "O=C(Nc1ccc(F)cn1)c1cc(C(F)F)[nH]n1", "note": "[Example 13, 5-(Difluoromethyl)-N-(5-fluoropyridin-2-yl)pyrazole-3-carboxamide]", "IC50": 0.393},
      {"smiles": "O=C(Nc1ccc([N+](=O)[O-])cn1)c1cc(Cl)[nH]n1", "note": "[Example 14, 5-Chloro-N-(5-nitropyridin-2-yl)pyrazole-3-carboxamide]", "IC50": 0.248},
      {"smiles": "COc1ccc(NC(=O)c2cc(Cl)[nH]n2)nc1", "note": "[Example 29, 5-Chloro-N-(5-methoxypyridin-2-yl)pyrazole-3-carboxamide]", "IC50": 0.122},
      {"smiles": "Cc1ccnc(NC(=O)c2cc[nH]n2)c1", "note": "[Example 44]", "IC50": 0.346}
    ]}
  ]
}
